Reference: patent US20250302862A1, “SMALL RNA DRUG FOR INHIBITING ACTIVITY OF CANCER CELLS” (Institute of Basic Medical Sciences Chinese Academy of …, priority 2022, published 2025)

How the values were obtained:
[1] = test system: primary lung cancer Kras^LSL-G12Dp53^fl/fl (KP) mouse model; assay: Survival of mice with primary lung cancer; assay type: in vivo; settings: 10 nmol sRNA in sphingosine(d18:1) delivery system daily by gavage until death, vs NC group
Text: The mouse model of primary lung cancer was Kras^LSL-G12Dp53^fl/fl (KP).
Mice were weighed and assigned to the negative control group (NC group) and HQi-sRNA-2 group randomly. The NC group was the negative control, in which a sphingosine(d18:1)-NC-sRNA herbal medicine delivery system was constructed from NC-sRNA. The HQi-sRNA-2 group was the experimental group, in which a sphingosine(d18:1)-HQi-sRNA-2 herbal medicine delivery system was constructed from HQi-sRNA-2 and sphingosine(d18:1).
The herbal medicine delivery system was constructed by heating and mixing 10 nmol of sRNA, 100 ug of sphingosine(d18:1) and 300 ul of sterile enzyme-free water in a water bath at 90° C. for 15 minutes.
Each mouse with a uniform body weight was dosed by gavage. Each mouse was given 10 nmol of HQi-sRNA-2 mimic daily by gavage until death of the mouse.
The survival time of each mouse was recorded, the survival curve was plotted, and statistical analysis was performed.
Mice were weighed and assigned to the negative control group (NC group), MDM-sRNA-39 group and MDM-sRNA-163 group randomly. The NC group was the negative control, in which a sphingosine(d18:1)-NC-sRNA herbal medicine delivery system was constructed from NC-sRNA. The MDM-sRNA-39 group was an experimental group, in which a sphingosine(d18:1)-MDM-sRNA-39 herbal medicine delivery system was constructed from MDM-sRNA-39. The MDM-sRNA-163 group was an experimental group, in which a sphingosine(d18:1)-MDM-sRNA-163 herbal medicine delivery system was constructed from MDM-sRNA-163.

[2] = test system: primary lung cancer Kras^LSL-G12Dp53^fl/fl (KP) mouse model; assay: Transcriptome sequencing of lung tissue, pathway clustering of differentially expressed genes; assay type: in vivo; settings: KP mouse lung tissue after 30 days of dosing, metacore pathway clustering, vs NC group
Text: The mouse model of primary lung cancer was Kras^LSL-G12Dp53^fl/fl (KP). Mice were weighed and assigned to the NC group and HQi-sRNA-2 group randomly. The NC group was the negative control, in which a sphingosine(d18:1)-NC-sRNA herbal medicine delivery system was constructed from NC-sRNA. The HQi-sRNA-2 group was the experimental group, in which a sphingosine(d18:1)-HQi-sRNA-2 herbal medicine delivery system was constructed from HQi-sRNA-2. The herbal medicine delivery system was constructed by heating and mixing 10 nmol of sRNA, 100 ug of sphingosine(d18:1) and 300 ul of sterile enzyme-free water in a water bath at 90° C. for 15 minutes. Mouse lung tissue was collected after 30 days of dosing, and the total RNA was extracted and subjected to non-strand-specific transcriptome sequencing. The differentially expressed genes in the experimental group and the control group were analyzed and calculated by a bioinformatics software, and the biological pathways in which the differentially expressed genes mainly functioned were analyzed by clustering using the metacore database. The pathways of the differentially expressed genes were visualized by the visualization software package ggplot2.
The mouse model of primary lung cancer was Kras^LSL-G12Dp53^fl/fl (KP). Mice were weighed and assigned to the NC group and MDM-sRNA-39 group randomly. […] The differentially expressed genes in the experimental group and the control group were analyzed and calculated by a bioinformatics software, and the biological pathways in which the differentially expressed genes mainly functioned were analyzed by clustering using the metacore database. […]
The mouse model of primary lung cancer was Kras^LSL-G12Dp53^fl/fl (KP). […] The differentially expressed genes in the experimental group and the control group were analyzed and calculated by a bioinformatics software, and the biological pathways in which the differentially expressed genes mainly functioned were analyzed by clustering using the metacore database. […]

HQi-sRNA-2: small RNA derived from Scutellaria baicalensis, sequence AUGGUUCGAUUCCGGAGAGGG (listed as RNA, chemistry not given here)
survival of mice with primary lung cancer [1]: significantly prolonged | functions of genes down-regulated at transcriptional level [2]: mainly clustered in oncology, immunology and other related biological pathways

MDM-sRNA-39: small RNA derived from Maytenus hookeri, sequence GGGAUUGUAGUUCAAUUGGUCAGAGCACC (listed as RNA, chemistry not given here)
survival of mice with primary lung cancer [1]: significantly prolonged | functions of genes down-regulated at transcriptional level [2]: mainly clustered in oncology, immunology and other related biological pathways

MDM-sRNA-163: small RNA derived from Maytenus hookeri, sequence UGACUCUAGUCCGACUUUGUGAAAUGACU (listed as RNA, chemistry not given here)
survival of mice with primary lung cancer [1]: significantly prolonged | functions of genes down-regulated at transcriptional level [2]: mainly clustered in oncology, immunology, and other related biological pathways
